Laboratory results: publication PMC4579270, “Identification and Characterization of an Irreversible Inhibitor of CDK2” (Chemistry & Biology, 2015)

What was measured:
Experiment in all cases: Dundee protein kinase screen
Type in all cases: biochemical
JAK2 = JAK2 (Homo sapiens, UniProt O60674); details: JAK2, 1µM; read-out: %Remaining activity at 1µM NU6300
Protocol: (§1) Prior to determining its cellular activity, we carried out a screen to assess its selectivity against a panel of 131 protein kinases under conditions that would not distinguish between a reversible or irreversible mode of action. […] These 13 kinases and 29 additional kinases, selected for their known sensitivity to other inhibitors within the purine series, were then tested in a modified screening format in which the assay was repeated following a 4-hr pre-incubation (Table S3B). […] However, conformational flexibility around the active site may promote such an interaction with a residue from another part of the structure ([Martin et al., 2012]).
(§2) Table S3, Related to Figure 4. NCL-0006300 protein kinase selectivity. (A) NU6300 was tested at a single concentration of 1µM against 131 protein kinases present in a Dundee protein kinase screen (Bain et al., 2007). Values given are % activity remaining and are the average of duplicate measurements: 0-25% (red), 26-50% (yellow), 51-80% (black) and above 81% (green). The kinase domain sequences (as defined by UniProt) of […]
(§3) have a lysine residue at a position close to CDK2 Lys88 or Lys89. However, in the structure of tyrosine-protein kinase BTK (PDB ID: 3GEN) the residue equivalent to CDK2 Asp86 is Cys481 and therefore there is the potential for a covalent adduct to be formed through this side chain. Ephrin type-B receptor 3 (UniProt entry P54753) also encodes a cysteine residue (Cys717) that by sequence alignment would be predicted to be close to the CDK2 lysine pair. (B) Selected kinases were re-tested in the Dundee kinase screen against NU6300 at a single concentration of 0.5 µM both in the standard assay format and following a 4 hour pre-incubation in the presence of NU6300. Kinases which have very low activity after the 4 hour incubation so that results might not be wholly reliable are boxed in salmon. Kinases where the activity after a 4 hour pre-incubation is < 50% that in the standard assay format are highlighted in red.

PKA = PKA (Homo sapiens, UniProt P17612); details: read-out: %Remaining activity at 1µM NU6300
Protocol: as §1, §2, §3

ERK8 = biological target: T1, ERK8 (Homo sapiens, UniProt Q8TD08); details: ERK8, 1µM; read-out: %Remaining activity at 1µM NU6300
T1 sequence (Q8TD08 1-544): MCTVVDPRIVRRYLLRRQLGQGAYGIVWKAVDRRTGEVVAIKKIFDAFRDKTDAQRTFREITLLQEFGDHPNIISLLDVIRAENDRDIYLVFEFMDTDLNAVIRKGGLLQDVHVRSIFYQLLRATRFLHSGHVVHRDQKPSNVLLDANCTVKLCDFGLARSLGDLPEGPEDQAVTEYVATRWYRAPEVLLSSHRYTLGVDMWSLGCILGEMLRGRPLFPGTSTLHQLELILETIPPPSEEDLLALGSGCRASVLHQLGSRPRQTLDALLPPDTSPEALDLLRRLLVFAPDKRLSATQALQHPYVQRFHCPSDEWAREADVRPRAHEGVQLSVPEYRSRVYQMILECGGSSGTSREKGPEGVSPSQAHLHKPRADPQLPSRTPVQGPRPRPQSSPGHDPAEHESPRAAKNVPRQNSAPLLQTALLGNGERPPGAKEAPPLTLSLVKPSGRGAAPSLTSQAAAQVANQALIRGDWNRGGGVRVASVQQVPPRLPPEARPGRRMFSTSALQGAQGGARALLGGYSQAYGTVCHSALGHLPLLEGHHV
Protocol: as §1, §2, §3

p38γ MAPK = p38γ MAPK (Homo sapiens, UniProt P53778); details: read-out: %Remaining activity at 1µM NU6300
Protocol: as §1, §2, §3

ASK1 = biological target: T2, ASK1 (Homo sapiens, UniProt Q99683); details: ASK1, 1µM; read-out: %Remaining activity at 1µM NU6300
T2 sequence (Q99683 1-1374): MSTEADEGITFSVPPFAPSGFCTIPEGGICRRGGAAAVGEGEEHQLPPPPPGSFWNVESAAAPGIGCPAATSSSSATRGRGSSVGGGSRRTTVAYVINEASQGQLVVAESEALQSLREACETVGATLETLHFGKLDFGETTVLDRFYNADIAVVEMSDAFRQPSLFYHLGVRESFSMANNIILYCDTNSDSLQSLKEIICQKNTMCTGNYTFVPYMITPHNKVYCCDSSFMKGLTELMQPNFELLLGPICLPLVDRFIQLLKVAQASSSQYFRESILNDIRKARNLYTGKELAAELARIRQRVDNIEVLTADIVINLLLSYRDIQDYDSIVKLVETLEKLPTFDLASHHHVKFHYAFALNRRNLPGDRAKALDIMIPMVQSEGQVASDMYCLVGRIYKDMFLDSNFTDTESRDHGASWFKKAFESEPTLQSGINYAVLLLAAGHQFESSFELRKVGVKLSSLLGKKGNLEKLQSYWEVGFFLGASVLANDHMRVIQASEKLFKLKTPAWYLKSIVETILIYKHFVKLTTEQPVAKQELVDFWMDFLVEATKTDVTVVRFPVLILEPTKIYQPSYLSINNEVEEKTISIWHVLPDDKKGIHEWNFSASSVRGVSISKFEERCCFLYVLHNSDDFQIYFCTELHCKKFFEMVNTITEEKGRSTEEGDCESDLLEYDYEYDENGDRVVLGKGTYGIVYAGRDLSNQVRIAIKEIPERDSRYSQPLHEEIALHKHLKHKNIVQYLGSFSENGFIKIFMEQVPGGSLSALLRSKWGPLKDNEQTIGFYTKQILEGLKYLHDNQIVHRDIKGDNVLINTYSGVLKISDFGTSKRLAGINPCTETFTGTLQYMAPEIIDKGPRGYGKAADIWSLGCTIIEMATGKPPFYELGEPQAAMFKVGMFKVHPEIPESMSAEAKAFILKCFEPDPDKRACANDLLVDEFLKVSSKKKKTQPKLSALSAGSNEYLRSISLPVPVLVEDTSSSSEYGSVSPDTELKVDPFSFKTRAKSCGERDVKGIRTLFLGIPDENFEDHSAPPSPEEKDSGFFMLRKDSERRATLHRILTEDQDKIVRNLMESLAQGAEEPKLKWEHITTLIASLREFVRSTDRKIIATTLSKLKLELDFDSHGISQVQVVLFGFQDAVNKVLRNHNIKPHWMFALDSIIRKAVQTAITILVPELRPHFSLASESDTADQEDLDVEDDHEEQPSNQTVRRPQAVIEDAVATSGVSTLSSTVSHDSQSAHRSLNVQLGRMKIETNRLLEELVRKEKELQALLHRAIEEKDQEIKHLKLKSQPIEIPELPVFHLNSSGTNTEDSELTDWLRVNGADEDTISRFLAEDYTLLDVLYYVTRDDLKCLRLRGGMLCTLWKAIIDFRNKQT
Protocol: as §1, §2, §3

p38γ MAPK, sequence (P53778 whole entry): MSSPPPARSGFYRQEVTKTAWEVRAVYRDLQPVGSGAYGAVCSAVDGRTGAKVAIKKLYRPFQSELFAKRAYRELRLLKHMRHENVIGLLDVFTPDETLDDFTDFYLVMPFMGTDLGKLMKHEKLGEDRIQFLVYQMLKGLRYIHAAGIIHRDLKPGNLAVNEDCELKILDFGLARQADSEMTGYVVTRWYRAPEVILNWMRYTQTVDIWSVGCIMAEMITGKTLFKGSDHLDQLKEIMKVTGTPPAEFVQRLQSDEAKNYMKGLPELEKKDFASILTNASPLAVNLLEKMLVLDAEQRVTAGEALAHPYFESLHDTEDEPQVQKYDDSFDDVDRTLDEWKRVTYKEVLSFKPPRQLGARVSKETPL
JAK2, sequence (O60674 whole entry): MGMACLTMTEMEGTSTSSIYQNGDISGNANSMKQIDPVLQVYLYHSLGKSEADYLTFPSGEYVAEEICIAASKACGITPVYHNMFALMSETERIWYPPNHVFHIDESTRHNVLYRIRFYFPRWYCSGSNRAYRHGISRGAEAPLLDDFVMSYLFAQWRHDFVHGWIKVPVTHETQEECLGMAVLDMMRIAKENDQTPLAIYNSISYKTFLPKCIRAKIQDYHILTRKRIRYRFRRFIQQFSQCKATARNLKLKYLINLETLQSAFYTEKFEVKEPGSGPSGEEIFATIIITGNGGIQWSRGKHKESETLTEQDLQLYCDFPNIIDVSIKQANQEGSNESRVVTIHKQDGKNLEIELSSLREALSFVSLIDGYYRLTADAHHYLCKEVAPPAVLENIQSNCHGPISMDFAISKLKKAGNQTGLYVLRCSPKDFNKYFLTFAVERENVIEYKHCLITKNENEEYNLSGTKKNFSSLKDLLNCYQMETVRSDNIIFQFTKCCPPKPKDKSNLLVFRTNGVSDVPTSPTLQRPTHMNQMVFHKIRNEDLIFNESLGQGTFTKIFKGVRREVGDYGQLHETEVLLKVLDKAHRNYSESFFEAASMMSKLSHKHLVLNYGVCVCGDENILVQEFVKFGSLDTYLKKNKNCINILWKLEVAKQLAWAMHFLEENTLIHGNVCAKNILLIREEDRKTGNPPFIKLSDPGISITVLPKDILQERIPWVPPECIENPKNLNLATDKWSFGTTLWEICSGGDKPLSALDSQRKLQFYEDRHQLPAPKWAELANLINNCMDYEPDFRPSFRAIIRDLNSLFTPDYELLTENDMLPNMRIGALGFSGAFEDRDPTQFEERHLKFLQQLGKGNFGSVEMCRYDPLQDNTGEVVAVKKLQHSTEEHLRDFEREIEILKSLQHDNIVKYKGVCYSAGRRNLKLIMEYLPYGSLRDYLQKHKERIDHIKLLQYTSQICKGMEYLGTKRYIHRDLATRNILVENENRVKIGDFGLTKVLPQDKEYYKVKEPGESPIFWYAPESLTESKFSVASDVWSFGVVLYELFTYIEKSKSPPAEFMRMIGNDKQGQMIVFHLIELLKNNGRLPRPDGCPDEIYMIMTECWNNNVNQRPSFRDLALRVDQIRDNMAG

C=CS(=O)(=O)c1ccc(Nc2nc(OCC3CCCCC3)c3nc[nH]c3n2)cc1 [NU6300, 6-(cyclohexylmethoxy)-N-(4-(vinylsulfonyl)phenyl)-9H-purin-2-amine] was tested, and the remaining activity at 1 µM (JAK2) was 5%, the remaining activity at 1 µM (PKA) was 88% and the remaining activity at 1 µM (ERK8) was 24%. The remaining activity at 1 µM (p38γ MAPK) was 104% and the remaining activity at 1 µM (ASK1) was 49%.
